Results reported in patent US20260224547A1, “COMPOSITIONS COMPRISING ANATABINE AND USES THEREOF” (Philip Morris Products S.A., priority 2021, published 2026).

Experiments:
[1] = system: HEK-293, SH-SY5Y, primary human keratinocytes, THP-1 differentiated with PMA; experiment: Cell viability, CellTiterGlo (ATP content), used to select concentrations; assay type: cell-based; details: 24 hours of exposure; no more than 400 μM anatabine free base
[2] = system: PMA-differentiated THP-1 cell lysates; experiment: DIA mass spectrometry proteomics of cell lysates; assay type: cell-based, human; details: 100, 200, 300, 400 μM for 24 hours; adjusted p-value<0.05
Procedure: To confirm the increased expression of target genes of NRF2 transcription factor at the protein level, proteins were profiled by untargeted mass spectrometry in PMA-differentiated THP-1 cell lysates after anatabine treatment (100, 200, 300, 400 μM) for 24 hours.
Samples were processed using PREOMICS IST KIT (PreOmics GmbH, Planegg/Martinsried, Germany) as described in the manufacturer's protocol. Briefly, 100 μl of PREOMICS LYSE BUFFER were added to the cells, samples were incubated at 90° C. for 10 min and sonified for 30 sec with a sonifier (Brandson, Danbury, Connecticut, USA) at 10% amplitude. Protein amount was determined using the PIERCE 660 NM PROTEIN ASSAY (Pierce Biotechnology, Rockford, USA) following the manufacturer's protocol. Samples were normalized to 0.5 μg/μl and 40 μg was further processed with PREOMICS IST KIT with a 3 h trypsin digestion. Peptides were purified on the cartridge, dried overnight on a vacuum concentrator (Martin Christ, Germany) and re-suspended in 50 μL of LC SOLUTION (Biognosys AG, Switzerland). 1 μL of iRT reference peptides (Biognosys AG, Switzerland) was added to 19 μL of processed sample. Samples were analysed with an EASY 1000 NANOLC (ThermoFisher Scientific) connected online to a Q-Exactive (ThermoFisher Scientific). […]

Question: How did the “cell viability (ATP content vs medium-only control)” value [1] turn out when `C1=CCC(c2cccnc2)NC1` (racemic) [anatabine, 1,2,3,6-Tetrahydro-2,3′-bipyridine] was run?
Answer: ≥ 80%

Question: And the “intracellular protein products of NRF2 target genes HMOX1, GCLM, NQO1 and TXNRD1” value [2]?
Answer: significantly expressed
